Experimental data: US20260008768A1, “UREA DERIVATIVES FOR INHIBITING NLRP3 AND USES THEREOF” (VENTUS THERAPEUTICS U.S., INC., priority 2023, published 2026)

Molecular target: human NLRP3 (Homo sapiens, UniProt Q96P20)
Assay: Scintillation Proximity (SPA) NLRP3 Assay, displacement of 3H-MCC950
Format: binding
Settings: Table B, activity class; displacement of 3H-MCC950 from human NLRP3
Protocol: Improved NLRP3 binding correlates with increased affinity for NLRP3 protein and, by extension, increased ability to interfere with its function.
SPA experiments were conducted in a total volume of 20 μL assay buffer containing 20 mM HEPES pH 7.5, 150 mM NaCl, 5 mM MgCl2, 0.01% (v/v) Tween-20, 0.01% (w/v) bovine serum albumin (BSA) and 100 μM of adenosine diphosphate (ADP). A human NLRP3 protein (350 nM) (see, e.g., Sharif et al., Nature (2019) 570:338-343; Hochheiser et al., Nature (2022) 604:184-189; Adreeva et al., Cell (2021) 184:6299-6312; Wang et al., J Exp. Med. (2021) 219:e20211147) was incubated with various concentration of compounds in 5% dimethyl sulfoxide (DMSO) final for 15 minutes at room temperature in a white half-area 96 well OptiPlate (PerkinElmer #6002290) before adding 125 nM final of 3H-MCC950. After the addition of radiolabeled MCC950, the plate was incubated for 60 minutes at room temperature before adding 0.25 mg/ml of copper-coated polyvinyltoluene SPA beads (PerkinElmer #RPNQ0095). The plate was then transferred to a microplate counter (PerkinElmer 2450 Microbeta) to collect binding data. Binding data was analyzed 6 hrs post-PVT bead addition to allow sufficient time to reach equilibrium. Specific binding was calculated from averaged duplicates by subtracting signal from wells without NLRP3 protein.
SPA NLRP3 IC50 assay results are provided in Table B. “A” activity=<1 uM; “B” activity=1-10 uM; “C” activity=>10-50 uM; “D” activity=>50 uM-100 uM; and “E” activity=>100 uM.

human NLRP3, sequence (Q96P20 whole entry): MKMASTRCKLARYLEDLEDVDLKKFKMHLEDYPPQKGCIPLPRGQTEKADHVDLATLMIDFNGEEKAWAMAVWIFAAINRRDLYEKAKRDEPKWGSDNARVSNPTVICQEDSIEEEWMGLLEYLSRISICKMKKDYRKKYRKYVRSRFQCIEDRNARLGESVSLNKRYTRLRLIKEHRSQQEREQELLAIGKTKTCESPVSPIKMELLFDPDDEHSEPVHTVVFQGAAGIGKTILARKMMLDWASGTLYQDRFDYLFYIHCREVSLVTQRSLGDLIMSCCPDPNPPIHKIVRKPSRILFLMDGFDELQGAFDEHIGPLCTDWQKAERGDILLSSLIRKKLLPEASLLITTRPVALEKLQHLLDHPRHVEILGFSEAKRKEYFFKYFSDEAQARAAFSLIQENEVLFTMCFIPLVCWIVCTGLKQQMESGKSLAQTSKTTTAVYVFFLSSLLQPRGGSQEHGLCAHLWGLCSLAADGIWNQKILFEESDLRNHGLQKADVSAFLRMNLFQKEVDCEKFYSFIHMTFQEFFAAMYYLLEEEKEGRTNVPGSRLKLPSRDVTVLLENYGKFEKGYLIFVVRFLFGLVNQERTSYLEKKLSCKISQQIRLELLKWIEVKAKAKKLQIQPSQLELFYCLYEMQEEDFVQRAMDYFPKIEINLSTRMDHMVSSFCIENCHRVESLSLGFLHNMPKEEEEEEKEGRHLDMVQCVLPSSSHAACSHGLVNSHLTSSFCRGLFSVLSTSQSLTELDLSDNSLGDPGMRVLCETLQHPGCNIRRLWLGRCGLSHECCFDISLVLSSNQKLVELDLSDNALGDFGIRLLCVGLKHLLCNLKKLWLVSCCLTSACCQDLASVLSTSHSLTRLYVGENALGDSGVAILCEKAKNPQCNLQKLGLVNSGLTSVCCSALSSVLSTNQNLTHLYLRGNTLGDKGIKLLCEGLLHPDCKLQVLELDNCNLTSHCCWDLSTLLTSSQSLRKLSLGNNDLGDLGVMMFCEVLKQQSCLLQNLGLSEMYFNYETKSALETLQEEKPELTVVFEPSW

Q: Which IC50 does the source give for `C[C@@H]1CCN(c2nnn[nH]2)C[C@@H](NC(=O)N(C)c2ccc(C3CC3)c(F)c2)C1` (single isomer, unassigned) [23B*] here?
A: 1 to 10 µM

Q: Which IC50 does the source give for `C[C@H]1CCN(c2nnn[nH]2)C[C@H](NC(=O)N(C)c2ccc(C3CC3)c(F)c2)C1` (single isomer, unassigned) [23C*] here?
A: 10 to 50 µM

Q: With `C[C@H]1CCN(c2nnn[nH]2)C[C@@H](NC(=O)N(C)c2ccc(C3CC3)c(F)c2)C1` (single isomer, unassigned) [23D*] as the compound, how does the IC50 read?
A: 1 to 10 µM

Q: `C[C@@H]1CCN(c2nnn[nH]2)C[C@@H](NC(=O)N(C)c2ccc(OC(F)(F)F)cc2F)C1` (single isomer, unassigned) [24B*] was tested. Which IC50 did it give?
A: 1 to 10 µM

Q: With `C[C@H]1CCN(c2nnn[nH]2)C[C@H](NC(=O)N(C)c2ccc(OC(F)(F)F)cc2F)C1` (single isomer, unassigned) [24C*] as the compound, how does the IC50 read?
A: 10 to 50 µM

Q: For `C[C@H]1CCN(c2nnn[nH]2)C[C@@H](NC(=O)N(C)c2ccc(OC(F)(F)F)cc2F)C1` (single isomer, unassigned) [24D*], which IC50 is on record?
A: 1 to 10 µM

Q: How did the IC50 turn out when `C[C@@H]1CCN(c2nnn[nH]2)C[C@@H](NC(=O)N(C)c2ccc(OC(F)(F)F)c(OC(F)F)c2)C1` (single isomer, unassigned) [25B*] was run?
A: 1 to 10 µM

Q: How did the IC50 turn out when `C[C@H]1CCN(c2nnn[nH]2)C[C@H](NC(=O)N(C)c2ccc(OC(F)(F)F)c(OC(F)F)c2)C1` (single isomer, unassigned) [25C*] was run?
A: 1 to 10 µM

Q: With `C[C@H]1CCN(c2nnn[nH]2)C[C@@H](NC(=O)N(C)c2ccc(OC(F)(F)F)c(OC(F)F)c2)C1` (single isomer, unassigned) [25D*] as the compound, how does the IC50 read?
A: 10 to 50 µM

Q: With `C[C@@H]1CCN(c2nnn[nH]2)C[C@@H](NC(=O)N(C)c2ccc(OC(F)(F)F)c(F)c2F)C1` (single isomer, unassigned) [26B*] as the compound, how does the IC50 read?
A: 1 to 10 µM

Q: For `C[C@H]1CCN(c2nnn[nH]2)C[C@H](NC(=O)N(C)c2ccc(OC(F)(F)F)c(F)c2F)C1` (single isomer, unassigned) [26C*], which IC50 is on record?
A: > 100 µM

Q: Which IC50 does the source give for `C[C@H]1CCN(c2nnn[nH]2)C[C@@H](NC(=O)N(C)c2ccc(OC(F)(F)F)c(F)c2F)C1` (single isomer, unassigned) [26D*] here?
A: 10 to 50 µM

Q: Which IC50 does the source give for `C[C@@H]1CCN(c2nnn[nH]2)C[C@H](NC(=O)Nc2ccc(Cl)cc2F)C1` (single isomer, unassigned) [27A*] here?
A: 1 to 10 µM

Q: How did the IC50 turn out when `C[C@@H]1CCN(c2nnn[nH]2)C[C@@H](NC(=O)Nc2ccc(Cl)cc2F)C1` (single isomer, unassigned) [27B*] was run?
A: 1 to 10 µM

Q: For `C[C@H]1CCN(c2nnn[nH]2)C[C@H](NC(=O)Nc2ccc(Cl)cc2F)C1` (single isomer, unassigned) [27C*], which IC50 is on record?
A: 10 to 50 µM

Q: For `C[C@H]1CCN(c2nnn[nH]2)C[C@@H](NC(=O)Nc2ccc(Cl)cc2F)C1` (single isomer, unassigned) [27D*], which IC50 is on record?
A: > 100 µM

Q: How did the IC50 turn out when `C[C@@H]1CCN(c2nnn[nH]2)C[C@H](NC(=O)N(C)c2ccc(Cl)cn2)C1` (single isomer, unassigned) [28A*] was run?
A: 1 to 10 µM

Q: `C[C@@H]1CCN(c2nnn[nH]2)C[C@@H](NC(=O)N(C)c2ccc(Cl)cn2)C1` (single isomer, unassigned) [28B*] was tested. Which IC50 did it give?
A: 50 to 100 µM

Q: For `C[C@H]1CCN(c2nnn[nH]2)C[C@H](NC(=O)N(C)c2ccc(Cl)cn2)C1` (single isomer, unassigned) [28C*], which IC50 is on record?
A: 50 to 100 µM

Q: Which IC50 does the source give for `C[C@H]1CCN(c2nnn[nH]2)C[C@@H](NC(=O)N(C)c2ccc(Cl)cn2)C1` (single isomer, unassigned) [28D*] here?
A: 10 to 50 µM

Q: How did the IC50 turn out when `C[C@@H]1CCN(c2nnn[nH]2)C[C@H](NC(=O)N(C)c2ccc(Cl)nc2)C1` (single isomer, unassigned) [29A*] was run?
A: 1 to 10 µM

Q: `C[C@@H]1CCN(c2nnn[nH]2)C[C@@H](NC(=O)N(C)c2ccc(Cl)nc2)C1` (single isomer, unassigned) [29B*] was tested. Which IC50 did it give?
A: 1 to 10 µM

Q: How did the IC50 turn out when `C[C@H]1CCN(c2nnn[nH]2)C[C@H](NC(=O)N(C)c2ccc(Cl)nc2)C1` (single isomer, unassigned) [29C*] was run?
A: 50 to 100 µM

Q: `C[C@H]1CCN(c2nnn[nH]2)C[C@@H](NC(=O)N(C)c2ccc(Cl)nc2)C1` (single isomer, unassigned) [29D*] was tested. Which IC50 did it give?
A: 10 to 50 µM

Q: Which IC50 does the source give for `C[C@@H]1CCN(c2nnn[nH]2)C[C@H](NC(=O)N(C)c2ncc(C(F)(F)F)cn2)C1` (single isomer, unassigned) [30A*] here?
A: > 100 µM

Q: For `C[C@@H]1CCN(c2nnn[nH]2)C[C@@H](NC(=O)N(C)c2ncc(C(F)(F)F)cn2)C1` (single isomer, unassigned) [30B*], which IC50 is on record?
A: > 100 µM

Q: For `C[C@H]1CCN(c2nnn[nH]2)C[C@H](NC(=O)N(C)c2ncc(C(F)(F)F)cn2)C1` (single isomer, unassigned) [30C*], which IC50 is on record?
A: > 100 µM

Q: Which IC50 does the source give for `C[C@H]1CCN(c2nnn[nH]2)C[C@@H](NC(=O)N(C)c2ncc(C(F)(F)F)cn2)C1` (single isomer, unassigned) [30D*] here?
A: > 100 µM

Q: With `C[C@@H]1CCN(c2nnn[nH]2)C[C@H](NC(=O)N(C)c2cnc(C(F)(F)F)nc2)C1` (single isomer, unassigned) [31A*] as the compound, how does the IC50 read?
A: 10 to 50 µM

Q: How did the IC50 turn out when `C[C@@H]1CCN(c2nnn[nH]2)C[C@@H](NC(=O)N(C)c2cnc(C(F)(F)F)nc2)C1` (single isomer, unassigned) [31B*] was run?
A: 10 to 50 µM

Q: `CC1CCN(c2nnn[nH]2)CC(NC(=O)N(C)c2cnc(C(F)(F)F)nc2)C1` (single isomer, unassigned) [31C*] was tested. Which IC50 did it give?
A: 10 to 50 µM

Q: Which IC50 does the source give for `C[C@H]1CCN(c2nnn[nH]2)C[C@@H](NC(=O)N(C)c2cnc(C(F)(F)F)nc2)C1` (single isomer, unassigned) [31D*] here?
A: 10 to 50 µM

Q: How did the IC50 turn out when `C[C@@H]1CCN(c2nnn[nH]2)C[C@@H](NC(=O)N(C)c2cnc(C(F)(F)F)cn2)C1` (single isomer, unassigned) [32B*] was run?
A: 50 to 100 µM

Q: Which IC50 does the source give for `C[C@H]1CCN(c2nnn[nH]2)C[C@H](NC(=O)N(C)c2cnc(C(F)(F)F)cn2)C1` (single isomer, unassigned) [32C*] here?
A: 50 to 100 µM

Q: How did the IC50 turn out when `C[C@H]1CCN(c2nnn[nH]2)C[C@@H](NC(=O)N(C)c2cnc(C(F)(F)F)cn2)C1` (single isomer, unassigned) [32D*] was run?
A: 50 to 100 µM

Q: For `C[C@@H]1CCN(c2nnn[nH]2)C[C@H](NC(=O)N(C)c2ccc(C(F)(F)F)nn2)C1` (single isomer, unassigned) [33A*], which IC50 is on record?
A: 10 to 50 µM

Q: With `C[C@@H]1CCN(c2nnn[nH]2)C[C@@H](NC(=O)N(C)c2ccc(C(F)(F)F)nn2)C1` (single isomer, unassigned) [33B*] as the compound, how does the IC50 read?
A: 50 to 100 µM

Q: Which IC50 does the source give for `C[C@H]1CCN(c2nnn[nH]2)C[C@H](NC(=O)N(C)c2ccc(C(F)(F)F)nn2)C1` (single isomer, unassigned) [33C*] here?
A: 50 to 100 µM

Q: With `C[C@H]1CCN(c2nnn[nH]2)C[C@@H](NC(=O)N(C)c2ccc(C(F)(F)F)nn2)C1` (single isomer, unassigned) [33D*] as the compound, how does the IC50 read?
A: 50 to 100 µM

Q: How did the IC50 turn out when `C[C@@H]1CCN(c2nnn[nH]2)C[C@@H](NC(=O)N(C)c2ccc(OC(F)F)c(F)c2F)C1` (single isomer, unassigned) [40B*] was run?
A: 1 to 10 µM

Q: Which IC50 does the source give for `C[C@H]1CCN(c2nnn[nH]2)C[C@H](NC(=O)N(C)c2ccc(OC(F)F)c(F)c2F)C1` (single isomer, unassigned) [40C*] here?
A: 10 to 50 µM

Q: For `C[C@@H]1CCN(c2nnn[nH]2)C[C@@H](NC(=O)N(C)c2c(F)cc(OC(F)(F)F)cc2F)C1` (single isomer, unassigned) [41B*], which IC50 is on record?
A: 1 to 10 µM

Q: With `C[C@H]1CCN(c2nnn[nH]2)C[C@H](NC(=O)N(C)c2c(F)cc(OC(F)(F)F)cc2F)C1` (single isomer, unassigned) [41C*] as the compound, how does the IC50 read?
A: 50 to 100 µM

Q: How did the IC50 turn out when `C[C@H]1CCN(c2nnn[nH]2)C[C@@H](NC(=O)N(C)c2c(F)cc(OC(F)(F)F)cc2F)C1` (single isomer, unassigned) [41D*] was run?
A: 1 to 10 µM

Q: How did the IC50 turn out when `C[C@@H]1C[C@H](NC(=O)N(C)c2ccc(OC(F)F)cc2)[C@H]2CC[C@@H]1N2c1nnn[nH]1` (single isomer, unassigned) [42B*] was run?
A: 10 to 50 µM

Q: With `C[C@H]1C[C@@H](NC(=O)N(C)c2ccc(OC(F)F)cc2)[C@@H]2CC[C@H]1N2c1nnn[nH]1` (single isomer, unassigned) [42C*] as the compound, how does the IC50 read?
A: > 100 µM

Q: For `C[C@H]1C[C@H](NC(=O)N(C)c2ccc(OC(F)F)cc2)[C@@H]2CC[C@H]1N2c1nnn[nH]1` (single isomer, unassigned) [42D*], which IC50 is on record?
A: 10 to 50 µM

Q: How did the IC50 turn out when `CCN(C(=O)N[C@H]1C[C@H](C)CCN(c2nnn[nH]2)C1)c1ccc(OC(F)(F)F)cc1` (single isomer, unassigned) [43B*] was run?
A: < 1 µM

Q: For `CCN(C(=O)N[C@@H]1C[C@@H](C)CCN(c2nnn[nH]2)C1)c1ccc(OC(F)(F)F)cc1` (single isomer, unassigned) [43C*], which IC50 is on record?
A: 10 to 50 µM

Q: For `CCN(C(=O)N[C@H]1C[C@@H](C)CCN(c2nnn[nH]2)C1)c1ccc(OC(F)(F)F)cc1` (single isomer, unassigned) [43D*], which IC50 is on record?
A: 1 to 10 µM

Q: Which IC50 does the source give for `C[C@@H]1CCN(c2nnn[nH]2)C[C@@H](NC(=O)N(CC2CC2)c2ccc(OC(F)(F)F)cc2)C1` (single isomer, unassigned) [44B*] here?
A: 1 to 10 µM

Q: `C[C@H]1CCN(c2nnn[nH]2)C[C@H](NC(=O)N(CC2CC2)c2ccc(OC(F)(F)F)cc2)C1` (single isomer, unassigned) [44C*] was tested. Which IC50 did it give?
A: 10 to 50 µM

Q: Which IC50 does the source give for `C[C@H]1CCN(c2nnn[nH]2)C[C@@H](NC(=O)N(CC2CC2)c2ccc(OC(F)(F)F)cc2)C1` (single isomer, unassigned) [44D*] here?
A: 1 to 10 µM

Same assay, conditions: Table C; displacement of 3H-MCC950 from human NLRP3

Q: For `C[C@@H]1CCN(c2nnn[nH]2)C[C@H](NC(=O)Nc2ccc(Cl)cc2F)C1` (single isomer, unassigned) [27A*], which IC50 is on record?
A: 1.4 µM
